Assay [1] relates to MDA-MB-231 triple negative breast cancer cell line. Put plainly: Cytotoxicity in TTK-expressed MDA-MB-231 cells. The assay is classed as cell-based. Particulars: Homo sapiens, MDA-MB-231, 120 h, 5 days. The procedure: To determine the cytotoxicity of a compound represented by Chemical Formula 1 according to the present invention to MDA-MB-231 cells, the following test was conducted.
MDA-MB-231 triple negative breast cancer cell line purchased from ATCC was inoculated into each well of a 96-well plate at a volume of 90 μL containing 2,000 cells. Thereafter, an example compound of the present invention was added to respective wells at concentrations of 10 μM, 3 μM, 1 μM, 0.3 μM, 0.1 μM, and 0 μM, and the cells were cultured in a cell incubator at 37° C. for 5 days. Five days later, 10 μL of Cyto X solution (manufacturer: LPS Solution) was added to each of the wells, and the absorbance was measured at 450 nm using an Epoch microplate spectrophotometer (manufacturer: BioTek Instruments Inc.) according to the product's user guide. For cytotoxicity, the IC50 value for cytotoxicity of each compound was calculated by quantifying the number of cells using the measured value.

Assay [2] has as its system HCT116 colon cancer cell line. Put plainly: Cytotoxicity in TTK-expressed HCT116 cells. Particulars: Homo sapiens, HCT-116, 120 h, 5 days. The assay is classed as cell-based. The procedure:
To determine the cytotoxicity of a compound represented by Chemical Formula 1 according to the present invention to HCT116 cells, the following test was conducted.
HCT116 colon cancer cell line purchased from ATCC was inoculated into each well of a 96-well plate at a volume of 90 μL containing 2,000 cells. Thereafter, an example compound of the present invention was added to respective wells at concentrations of […], 3 μM, 1 μM, 0.3 μM, 0.1 μM, and 0 μM, and the cells were cultured in a cell incubator at 37° C. for 5 days. After 5 days, the number of cells was measured by CCK8 test method, and the cytotoxicity was determined by calculating the IC50 value for cytotoxicity of each compound.

Assay [3] deals with MDA-MB-231 tumor in nude mice. Put plainly: Drug efficacy on nude mice employing MDA-MB-231. Type of assay: in vivo. Particulars: MDA-MB-231, oral 6 mg/kg daily for 4 weeks. The procedure: 5-Week-old female nude mice were subcutaneously injected with 5×10^6 MDA-MB-231 cells into the flank. When the tumor volume reached approximately 50 mm^3, the mice were divided into groups, each containing 5 animals, which were than orally administered a drug. The dosage of the drug was 6 mg/kg and administered daily for 4 weeks.

Assay [4] deals with MDA-MB-231 triple negative breast cancer cell line. Put plainly: Cell cycle distribution of co-treatment with paclitaxel in MDA-MB-231 cells. The assay is classed as cell-based. Particulars: co-treated with 0.001 μM paclitaxel. The procedure: To determine the change in cell cycle distribution when a compound represented by Chemical Formula 1 according to the present invention and paclitaxel were co-applied to MDA-MB-231 cells, the following test was conducted.
MDA-MB-231 triple negative breast cancer cell line purchased from ATCC was inoculated into each well of a 6-well plate at 100,000 cells. Thereafter, paclitaxel was added at concentrations of 0 μM and 0.001 μM and an example compound of the present invention was added at concentrations of 0 μM, 0.03 μM, or 0.1 μM, and the cells were cultured in a cell incubator at 37° C. for 2 days. After 2 days, the cells were fixed with 70% ethanol, and added and into 200 μL of Muse Cell Cycle reagent in a light-shielded state and cultured for 30 minutes. Then, the cell cycle distribution was analyzed using a Muse Cell Analyzer (manufacturer: Merck, Millipore), and the results are shown in FIG. 6.

Assay [5] has as its target recombinant human TTK protein (Homo sapiens (Human), UniProt P33981). Put plainly: Evaluation of TTK activity inhibitory ability (scintillation counting).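 Further: reaction stopped with 0.5% phosphoric acid, spotted on P30 filter, TTK activity counted by scintillation, uninhibited no-compound wells taken as 100% control.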 Type of assay: biochemical.
Description: To determine the ability of a compound represented by Chemical Formula 1 according to the present invention to inhibit TTK activity, the following experiment was conducted.
After that, the reaction was terminated by adding phosphoric acid to a concentration of 0.5%, and 10 of the reaction solution was dropped onto a P30 filter. […] The activity of TTK was measured through scintillation counting. The activity value from the group with no compound was set as 100% of control, and the degree of TTK inhibition by the compound was calculated.
A further assay has as its target ALK(h) (Homo sapiens (Human), UniProt Q9UM73). Put plainly: Kinase activity inhibitory ability (panel). Type of assay: biochemical. Particulars: compound at 500 nM.
The target of another assay is IR(h), activated (Homo sapiens (Human), UniProt P06213). Put plainly: Kinase activity inhibitory ability (panel). Type of assay: biochemical. Particulars: compound at 500 nM.
The next assay deals with IRR(h) (Homo sapiens (Human), UniProt P14616). Put plainly: Kinase activity inhibitory ability (panel). The assay is classed as biochemical. As to conditions: compound at 500 nM.
For a further assay, the target named is LTK(h) (Homo sapiens (Human), UniProt P29376). Put plainly: Kinase activity inhibitory ability (panel). Particulars: compound at 500 nM. The assay is classed as biochemical.
In the next assay the target is TTK(h) (Homo sapiens (Human), UniProt P33981). Put plainly: Kinase activity inhibitory ability (panel). The assay is classed as biochemical.
Setting [6] is: TTK inhibitory activity, read-out: IC50.

Each structure is given as a SMILES string. Like-named read-outs stand apart in the source and are kept apart here.

recombinant human TTK protein, sequence (P33981 whole entry): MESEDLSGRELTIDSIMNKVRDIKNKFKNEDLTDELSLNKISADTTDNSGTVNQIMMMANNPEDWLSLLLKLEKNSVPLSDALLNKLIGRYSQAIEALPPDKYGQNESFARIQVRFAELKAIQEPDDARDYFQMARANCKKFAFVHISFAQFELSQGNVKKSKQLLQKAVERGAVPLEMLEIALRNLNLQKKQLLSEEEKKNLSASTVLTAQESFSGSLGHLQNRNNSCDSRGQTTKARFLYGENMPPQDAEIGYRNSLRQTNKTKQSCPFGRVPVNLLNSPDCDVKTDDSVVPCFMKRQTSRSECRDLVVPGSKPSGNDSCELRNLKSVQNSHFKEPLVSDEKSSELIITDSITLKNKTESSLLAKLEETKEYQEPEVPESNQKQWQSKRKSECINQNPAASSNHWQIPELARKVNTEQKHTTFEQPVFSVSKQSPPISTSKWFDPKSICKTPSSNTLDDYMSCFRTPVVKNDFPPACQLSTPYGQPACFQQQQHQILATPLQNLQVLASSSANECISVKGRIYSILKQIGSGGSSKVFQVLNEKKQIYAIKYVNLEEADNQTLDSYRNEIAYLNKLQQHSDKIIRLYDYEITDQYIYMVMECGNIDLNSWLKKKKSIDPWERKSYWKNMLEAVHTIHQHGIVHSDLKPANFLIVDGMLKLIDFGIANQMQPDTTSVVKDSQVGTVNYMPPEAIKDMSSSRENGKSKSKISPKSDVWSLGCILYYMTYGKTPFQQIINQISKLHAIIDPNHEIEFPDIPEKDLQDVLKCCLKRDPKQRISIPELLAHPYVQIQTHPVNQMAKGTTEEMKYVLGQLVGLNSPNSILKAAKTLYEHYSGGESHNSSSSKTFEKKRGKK
TTK(h), sequence (P33981 whole entry): as above
IR(h), activated, sequence (P06213 28-1382): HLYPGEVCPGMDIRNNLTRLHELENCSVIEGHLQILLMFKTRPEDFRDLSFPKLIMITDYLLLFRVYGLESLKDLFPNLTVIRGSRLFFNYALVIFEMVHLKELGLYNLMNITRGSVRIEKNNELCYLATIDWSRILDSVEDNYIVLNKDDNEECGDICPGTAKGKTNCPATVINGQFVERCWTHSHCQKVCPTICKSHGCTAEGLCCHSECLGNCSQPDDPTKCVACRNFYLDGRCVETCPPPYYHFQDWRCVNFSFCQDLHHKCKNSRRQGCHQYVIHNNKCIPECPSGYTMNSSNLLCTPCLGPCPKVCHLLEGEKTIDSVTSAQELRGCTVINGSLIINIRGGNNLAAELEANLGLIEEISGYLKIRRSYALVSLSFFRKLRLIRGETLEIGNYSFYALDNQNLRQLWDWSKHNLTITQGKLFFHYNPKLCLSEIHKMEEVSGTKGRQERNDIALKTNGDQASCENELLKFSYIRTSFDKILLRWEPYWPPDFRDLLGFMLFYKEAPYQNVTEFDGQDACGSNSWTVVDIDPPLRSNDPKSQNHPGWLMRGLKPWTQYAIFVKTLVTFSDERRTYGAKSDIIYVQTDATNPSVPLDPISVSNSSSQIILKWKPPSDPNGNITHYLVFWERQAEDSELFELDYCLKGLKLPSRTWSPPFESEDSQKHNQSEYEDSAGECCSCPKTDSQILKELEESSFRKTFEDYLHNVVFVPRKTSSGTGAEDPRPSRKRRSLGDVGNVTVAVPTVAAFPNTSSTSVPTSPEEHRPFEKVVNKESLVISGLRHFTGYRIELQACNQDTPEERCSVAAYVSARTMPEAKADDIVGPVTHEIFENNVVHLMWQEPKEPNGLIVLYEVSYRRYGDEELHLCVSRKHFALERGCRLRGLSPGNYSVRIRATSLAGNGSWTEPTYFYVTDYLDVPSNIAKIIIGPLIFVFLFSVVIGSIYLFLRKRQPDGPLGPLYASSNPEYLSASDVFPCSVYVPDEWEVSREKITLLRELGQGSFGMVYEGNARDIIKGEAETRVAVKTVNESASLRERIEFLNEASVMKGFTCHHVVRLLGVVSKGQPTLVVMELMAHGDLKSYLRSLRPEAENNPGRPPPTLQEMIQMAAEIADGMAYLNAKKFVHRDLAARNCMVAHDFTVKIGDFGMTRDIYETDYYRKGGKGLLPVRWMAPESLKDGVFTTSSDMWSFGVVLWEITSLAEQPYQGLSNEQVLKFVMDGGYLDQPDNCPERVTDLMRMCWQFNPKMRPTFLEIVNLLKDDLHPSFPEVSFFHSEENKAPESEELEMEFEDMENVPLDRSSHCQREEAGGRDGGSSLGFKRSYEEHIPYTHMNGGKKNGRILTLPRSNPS
LTK(h), sequence (P29376 17-864): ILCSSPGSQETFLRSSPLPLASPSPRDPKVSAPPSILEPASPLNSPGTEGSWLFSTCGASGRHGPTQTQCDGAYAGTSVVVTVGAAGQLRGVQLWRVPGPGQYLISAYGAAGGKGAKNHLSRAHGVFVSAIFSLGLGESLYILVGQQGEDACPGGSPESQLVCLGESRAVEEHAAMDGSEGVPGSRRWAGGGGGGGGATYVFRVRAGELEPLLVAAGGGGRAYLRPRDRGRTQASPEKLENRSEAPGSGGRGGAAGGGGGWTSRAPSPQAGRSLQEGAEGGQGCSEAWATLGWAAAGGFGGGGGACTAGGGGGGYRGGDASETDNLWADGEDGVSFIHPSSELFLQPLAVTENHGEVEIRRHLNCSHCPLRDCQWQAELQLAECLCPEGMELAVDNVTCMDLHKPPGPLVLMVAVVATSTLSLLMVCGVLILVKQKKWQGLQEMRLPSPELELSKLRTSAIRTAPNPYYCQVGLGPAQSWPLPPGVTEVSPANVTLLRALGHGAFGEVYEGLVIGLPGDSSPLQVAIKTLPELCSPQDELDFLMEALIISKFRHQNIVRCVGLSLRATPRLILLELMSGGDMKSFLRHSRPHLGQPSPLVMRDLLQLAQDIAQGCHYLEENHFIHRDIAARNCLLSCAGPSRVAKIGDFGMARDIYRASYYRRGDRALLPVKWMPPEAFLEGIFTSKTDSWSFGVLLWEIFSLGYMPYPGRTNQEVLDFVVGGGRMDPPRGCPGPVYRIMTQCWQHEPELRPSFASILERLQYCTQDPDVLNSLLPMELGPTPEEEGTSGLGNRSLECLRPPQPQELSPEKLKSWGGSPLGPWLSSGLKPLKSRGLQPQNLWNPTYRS
ALK(h), sequence (Q9UM73 19-1620): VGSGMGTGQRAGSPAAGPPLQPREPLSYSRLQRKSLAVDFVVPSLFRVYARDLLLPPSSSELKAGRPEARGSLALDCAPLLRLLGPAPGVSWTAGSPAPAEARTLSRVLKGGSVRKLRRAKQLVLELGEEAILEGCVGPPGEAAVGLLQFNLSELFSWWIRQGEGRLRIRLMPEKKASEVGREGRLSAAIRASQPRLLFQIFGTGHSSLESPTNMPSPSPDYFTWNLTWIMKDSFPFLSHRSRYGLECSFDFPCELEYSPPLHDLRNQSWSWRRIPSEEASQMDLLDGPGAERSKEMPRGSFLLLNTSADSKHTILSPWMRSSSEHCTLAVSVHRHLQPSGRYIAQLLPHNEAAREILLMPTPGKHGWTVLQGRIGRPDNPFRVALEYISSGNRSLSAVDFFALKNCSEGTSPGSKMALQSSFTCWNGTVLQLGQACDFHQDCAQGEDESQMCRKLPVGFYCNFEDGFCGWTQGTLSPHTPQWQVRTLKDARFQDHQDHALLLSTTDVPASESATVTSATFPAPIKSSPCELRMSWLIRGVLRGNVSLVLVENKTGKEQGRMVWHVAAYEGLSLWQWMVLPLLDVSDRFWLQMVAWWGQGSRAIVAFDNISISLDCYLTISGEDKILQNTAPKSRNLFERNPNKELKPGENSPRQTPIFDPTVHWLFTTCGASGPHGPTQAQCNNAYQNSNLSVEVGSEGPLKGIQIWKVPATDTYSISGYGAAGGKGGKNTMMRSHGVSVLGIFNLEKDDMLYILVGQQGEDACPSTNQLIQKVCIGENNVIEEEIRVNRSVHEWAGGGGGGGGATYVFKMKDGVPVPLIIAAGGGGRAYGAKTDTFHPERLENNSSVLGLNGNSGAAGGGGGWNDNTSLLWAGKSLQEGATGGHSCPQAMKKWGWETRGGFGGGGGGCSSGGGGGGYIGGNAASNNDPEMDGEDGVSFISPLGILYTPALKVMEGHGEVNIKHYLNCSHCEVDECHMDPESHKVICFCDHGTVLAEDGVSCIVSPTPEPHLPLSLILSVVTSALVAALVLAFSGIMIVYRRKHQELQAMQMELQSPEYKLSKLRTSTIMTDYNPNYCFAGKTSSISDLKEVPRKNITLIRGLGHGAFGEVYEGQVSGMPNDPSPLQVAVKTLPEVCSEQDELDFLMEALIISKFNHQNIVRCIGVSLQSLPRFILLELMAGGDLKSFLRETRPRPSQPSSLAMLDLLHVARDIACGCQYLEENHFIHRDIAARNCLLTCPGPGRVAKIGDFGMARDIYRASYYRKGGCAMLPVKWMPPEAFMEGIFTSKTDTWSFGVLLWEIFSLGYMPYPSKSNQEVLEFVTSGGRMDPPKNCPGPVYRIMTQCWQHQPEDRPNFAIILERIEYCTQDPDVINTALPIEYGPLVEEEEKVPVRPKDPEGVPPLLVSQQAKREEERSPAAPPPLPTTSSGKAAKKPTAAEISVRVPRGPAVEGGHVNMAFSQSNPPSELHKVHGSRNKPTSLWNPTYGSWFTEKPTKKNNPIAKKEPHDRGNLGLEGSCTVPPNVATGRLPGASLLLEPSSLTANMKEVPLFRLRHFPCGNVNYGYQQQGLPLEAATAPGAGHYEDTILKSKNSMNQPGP

One may read the IC50 as the midpoint of a concentration-inhibition curve. With `Cc1cc(-c2cnn3c(NC[C@H]4C[C@@](C)(O)C4)cc(Oc4cccnc4)nc23)ccc1C(=O)NC1CC1` [Comparative Example 1, CFI-402257, reference compound], the IC50 in assay [1] and in [2] was under 150 nM each time. Also, the “tumor volume over time” value in assay [3] is recorded as “reduced”. The “change in cell distribution on co-treatment” value in assay [4] was “enhanced changes in cell distribution”.

Usually inhibition stands for the change of the read-out against control, counted positive when it falls. A low value points to a weak effect. On to `COc1ccc(Cn2nc(-c3cn[nH]c3)c3c(NC4CCCCC4)nc(Nc4ccc(N5CCOCC5)cc4OC)nc32)cc1` [Compound 8-8, N^4-cyclohexyl-N^6-(2-methoxy-4-morpholinophenyl)-1-(4-methoxybenzyl)-3-(1H-pyrazol-4-yl)-1H-pyrazolo[3,4-d]pyrimidine-4,6-diamine], for which the half-inhibitory concentration (IC50) in [5] was 0.03 to 0.1 µM; in [1], under 150 nM; in assay [2] it was under 150 nM. Further, the activity at 0.5 µM on ALK(h) is 2%; at IR(h), activated, 8%; at IRR(h) it was 7%; at LTK(h) it was 2%; on TTK(h) (TTK(h), compound at 500 nM) it was -7%. Also, the inhibition at 0.5 µM against ALK(h) was over 90%; against IR(h), activated, over 90%; on IRR(h) it was over 90%; against LTK(h) it was over 90%; against TTK(h) (TTK(h), compound at 500 nM) it was over 90%. Also, the “TTK activity inhibition (in words)” value on TTK(h) (500 nM) is “completely inhibited TTK activity”.

With `COc1cc(N2CCOCC2)ccc1Nc1nc(NC2CCOCC2)c2c(-c3ccn(C)n3)n[nH]c2n1` [Compound 8-25, N^6-(2-methoxy-4-morpholinophenyl)-3-(1-methyl-1H-pyrazol-3-yl)-N^4-(tetrahydro-2H-pyran-4-yl)-1H-pyrazolo[3,4-d]pyrimidine-4,6-diamine], the IC50 was under 0.03 µM in assay [5] (setting [6]), 150 to 500 nM in assay [1] and 150 to 500 nM in assay [2].

Consider `COc1cc(N2CCOCC2)ccc1Nc1nc(NC2CCCCC2)c2c(-c3ccc4[nH]cnc4c3)n[nH]c2n1` [Compound 8-16, 3-(1H-benzo[d]imidazol-5-yl)-N^4-cyclohexyl-N^6-(2-methoxy-4-morpholinophenyl)-1H-pyrazolo[3,4-d]pyrimidine-4,6-diamine], for which the IC50 in [5] (setting [6]) is 0.03 to 0.1 µM; in assay [1], 500 to 1000 nM; in assay [2] it was under 150 nM.

For the origin of these results see patent US20250145625A1, “PYRAZOLOPYRIMIDINE DERIVATIVE AND ANTICANCER PHARMACEUTICAL COMPOSITION CONTAINING SAME AS ACTIVE INGREDIENT” (KOREA RESEARCH INSTITUTE OF CHEMICAL TECHNOLOGY, priority 2021, published 2025).
